Where two headings read alike, the source gives them in different places.
How the values were obtained:
[1] = target: T1, aPKCζ (Homo sapiens (Human), UniProt Q05513); assay: Kinase-Glo end-point assay, IC50 against aPKCζ; details: 125 ng/ml aPKCζ, 25 μM CREBtide, 0.1 μM ATP
[2] = target: T1, aPKCζ; assay: ADP Quest assay, IC50 against aPKCζ; details: 500 ng/ml aPKCζ, 10 μM CREBtide, 10 μM ATP
[3] = system: HEK293pNF-kBluc cells; assay: TNF-induced NF-kB activation assay (luciferase reporter); assay type: cell-based, human; details: 3 h pre-treatment, 5 ng/mL TNF for 5 h
Protocol: HEK293pNF-kBluc cells (Panomics, Fremont, Calif., USA) were cultured according to the manufacturer's protocol. Cells were seeded onto 96-well plates in phenol red-free DMEM containing high glucose (Sigma) for 24 hours prior to assay. Cells were exposed to a candidate compound for three hours. Following treatment, cells were stimulated with 5 ng/ml TNF (R&D Systems) for five hours. Cells were then lysed with Bright-Glo™ luciferase reagent (Promega, Madison, Wis., USA) and luminescent values were obtained using a GloMax® instrument using standard protocol for Bright-Glo™ luciferase reagent. Values were background corrected and normalized to TNF treatment alone and represented as % NF-kB activity.
Human embryonic kidney cells containing a luciferase reporter gene for NF-kB activation (HEK293pNF-kBluc) were treated with candidate compounds described herein for three hours. The cells were then stimulated with TNF for five hours and the inhibition of NF-kB was evaluated. After pre-treatment with 100 nM of aPKC inhibitor, NF-kB activity was reduced by as much as 80%. […] Other compounds tested inhibited TNF-induced NF-kB activity, but to a lesser degree.

[4] = system: BREC monolayer; assay: TNF/VEGF permeability assay; assay type: cell-based, bovine; details: 30 min pretreatment, TNFα 1 hour then VEGF 30 min; for EC50: read-out: EC50 for inhibition of TNF/VEGF-induced endothelial permeability
Protocol: BREC were plated onto 0.4 μm Transwell filters (Corning Costar, Acton, Mass., USA) and grown to confluence. Following 30 minutes of pretreatment with candidate compound, cells were subjected to 5 ng/ml TNFα (R&D Systems, Minneapolis, Minn., USA) for one hour, then 50 ng/ml VEGF (R&D Systems) for 30 minutes. Following treatments, 70 kDa Rhodamine β isothiocyanate-dextran (RITC-Dextran) was added to the apical chamber, and samples were collected from the basolateral chamber at 30 minute intervals for four hours. The rate of flux of the substrate, Po, was calculated over the four-hour time course from the following formula: Po=[FL/delta(t))VA]/(FAA)
where Po is in centimeters per second; FL is basolateral fluorescence; FA is apical fluorescence; delta(t) is change in time; A is the surface area of the filter (in square centimeters); and VA is the volume of the basolateral chamber (in cubic centimeters).

[5] = target: PKCε (Homo sapiens (Human), UniProt Q02156); assay: Radio-labeled kinase assay at the Kmapp for ATP; assay type: biochemical
PKCε, sequence (Q02156 whole entry, canonical isoform): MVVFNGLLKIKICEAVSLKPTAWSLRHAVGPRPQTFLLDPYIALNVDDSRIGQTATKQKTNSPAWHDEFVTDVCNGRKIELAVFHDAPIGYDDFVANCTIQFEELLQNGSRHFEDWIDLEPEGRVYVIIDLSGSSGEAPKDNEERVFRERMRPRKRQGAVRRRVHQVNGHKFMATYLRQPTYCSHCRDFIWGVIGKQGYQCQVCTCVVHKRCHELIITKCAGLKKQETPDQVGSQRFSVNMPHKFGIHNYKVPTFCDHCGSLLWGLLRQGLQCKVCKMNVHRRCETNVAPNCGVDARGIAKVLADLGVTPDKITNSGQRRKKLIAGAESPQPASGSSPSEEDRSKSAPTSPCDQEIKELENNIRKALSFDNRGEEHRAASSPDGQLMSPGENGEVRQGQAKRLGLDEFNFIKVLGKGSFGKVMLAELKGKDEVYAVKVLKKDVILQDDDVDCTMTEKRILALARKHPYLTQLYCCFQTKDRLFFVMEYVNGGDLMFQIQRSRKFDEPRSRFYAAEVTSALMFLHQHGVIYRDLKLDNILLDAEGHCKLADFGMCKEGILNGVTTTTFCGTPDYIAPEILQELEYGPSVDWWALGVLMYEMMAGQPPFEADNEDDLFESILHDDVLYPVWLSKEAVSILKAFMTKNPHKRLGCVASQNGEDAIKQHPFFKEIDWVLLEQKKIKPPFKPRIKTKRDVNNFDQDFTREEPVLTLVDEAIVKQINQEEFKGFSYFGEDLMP
Description: (§1) PKCldiMeO and PKCζl-diCl were screened against other PKC isoforms to determine class specificity using a radio-labeled kinase assay at the Kmapp for ATP. […] PKCζl-diCl was 5-10 fold more specific towards the atypical PKC isoforms compared to the classical PKCs (α, β) and over 10-20 fold more specific compared to the novel class (δ,ε).

[6] = target: PKCβ (Homo sapiens (Human), UniProt P05771); assay: Radio-labeled kinase assay at the Kmapp for ATP; assay type: biochemical
PKCβ, sequence (P05771 whole entry): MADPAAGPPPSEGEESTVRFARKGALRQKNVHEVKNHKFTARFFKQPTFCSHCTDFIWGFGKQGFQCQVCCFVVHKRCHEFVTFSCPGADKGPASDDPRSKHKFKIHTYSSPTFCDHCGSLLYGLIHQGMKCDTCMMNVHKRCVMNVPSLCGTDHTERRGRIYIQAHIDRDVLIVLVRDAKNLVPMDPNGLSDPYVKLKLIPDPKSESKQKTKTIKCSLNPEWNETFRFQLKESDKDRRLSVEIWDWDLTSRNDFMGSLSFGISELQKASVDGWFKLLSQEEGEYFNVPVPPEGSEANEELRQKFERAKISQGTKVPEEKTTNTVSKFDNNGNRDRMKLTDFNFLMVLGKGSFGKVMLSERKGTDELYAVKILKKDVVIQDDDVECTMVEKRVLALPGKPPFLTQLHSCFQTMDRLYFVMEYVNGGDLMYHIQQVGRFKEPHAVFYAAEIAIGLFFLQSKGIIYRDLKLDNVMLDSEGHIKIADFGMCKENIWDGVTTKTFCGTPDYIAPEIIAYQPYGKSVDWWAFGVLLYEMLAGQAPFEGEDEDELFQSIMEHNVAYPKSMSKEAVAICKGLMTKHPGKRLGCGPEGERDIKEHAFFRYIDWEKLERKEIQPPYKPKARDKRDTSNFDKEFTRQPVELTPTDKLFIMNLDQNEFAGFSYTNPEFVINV
Description: as §1

[7] = target: PKCα (Homo sapiens (Human), UniProt P17252); assay: Radio-labeled kinase assay at the Kmapp for ATP; assay type: biochemical
Description: as §1

[8] = target: PKCδ (Homo sapiens (Human), UniProt Q05655); assay: Radio-labeled kinase assay at the Kmapp for ATP; assay type: biochemical
PKCδ, sequence (Q05655 whole entry): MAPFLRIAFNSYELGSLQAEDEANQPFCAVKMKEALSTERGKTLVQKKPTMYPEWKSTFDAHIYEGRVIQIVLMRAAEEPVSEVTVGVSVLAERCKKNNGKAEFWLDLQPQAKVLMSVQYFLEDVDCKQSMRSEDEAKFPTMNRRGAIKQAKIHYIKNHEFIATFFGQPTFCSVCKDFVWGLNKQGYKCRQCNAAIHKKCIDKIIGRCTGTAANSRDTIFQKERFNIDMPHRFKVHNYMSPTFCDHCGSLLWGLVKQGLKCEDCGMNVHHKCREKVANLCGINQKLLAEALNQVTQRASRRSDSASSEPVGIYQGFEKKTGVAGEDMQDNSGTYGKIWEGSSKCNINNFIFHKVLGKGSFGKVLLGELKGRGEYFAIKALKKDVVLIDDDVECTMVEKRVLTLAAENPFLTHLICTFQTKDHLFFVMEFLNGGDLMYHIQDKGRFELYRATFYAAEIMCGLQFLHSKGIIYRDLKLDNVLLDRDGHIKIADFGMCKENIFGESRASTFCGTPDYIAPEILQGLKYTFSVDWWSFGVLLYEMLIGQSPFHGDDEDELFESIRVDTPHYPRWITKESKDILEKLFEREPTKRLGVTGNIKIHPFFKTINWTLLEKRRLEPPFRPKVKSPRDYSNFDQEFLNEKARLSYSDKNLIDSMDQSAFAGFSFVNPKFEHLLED
Description: as §1

[9] = system: BREC monolayer; assay: VEGF-induced retinal endothelial permeability assay (70 kDa RITC-Dextran); assay type: cell-based, bovine; details: pretreatment 30 min, 30 or 100 nM PKCζl-diCl, 30 or 300 nM PKCl-diMeO; 50 ng/ml VEGF
Protocol: (§2) Primary bovine retinal endothelial cells (BREC) were isolated from fresh bovine eye tissue. Human retinal endothelial cells (HREC) were from Cell Systems (Krikland, Wash., USA). Cells were grown in MCDB-131 complete media (Sigma-Aldrich, Mo., USA) containing 10% fetal bovine serum, 10 ng/ml epidermal growth factor, 200 μg/ml Endogro (Vec Technologies, Rensselaer, N.Y., USA), 90 μg/ml heparin, antibiotics and antimycotics. For experimentation, cells were grown to confluence and serum starved for 24 hours with 100 nM hydrocortisone and treated with VEGF at 50 ng/ml where indicated. All experiments were performed with cells at passage 5-8.
(§3) RECs were plated onto 0.4 μm Transwell filters (Corning Costar, Acton, Mass., USA) and grown to confluence. Following treatments, 70 kDa rhodamine β isothiocyanate-dextran (RITC-Dextran) was added to the apical chamber and samples were collected from the basolateral chamber at 30 minute intervals for 4 hours. The rate of flux of the substrate, Po, was calculated over the 4 hour time course from the following formula. Po=[FL/Δt)VA]/(FAA) where Po is in centimeters per second; FL is basolateral fluorescence; FA is apical fluorescence; Δt is change in time; A is the surface area of the filter (in square centimeters); and VA is the volume of the basolateral chamber (in cubic centimeters). […]

[10] = system: PKC isoforms; assay: PKC class specificity from radio-labeled kinase assay; assay type: biochemical, human
Description: as §1

[11] = system: cPKC / Erk phosphorylation in endothelial cells; assay: cPKC activity in cell culture (Erk phosphorylation, immunoblot); assay type: cell-based
Protocol: Cells were harvested in extraction buffer containing 100 mM NaCl, 1% Triton X-100, 0.5% Sodium Deoxycholate, 0.2% SDS, 2 mM EDTA, 10 mM HEPES (pH 7.5), 1 mM sodium orthovanadate, 10 mM sodium fluoride, 10 mM sodium pyrophosphate, 1 mM benzamadine, 1 complete protease inhibitor tablet, 10 μM LR-microcystin. Following protein extraction, Western blot utilizing the NuPAGE system (Invitrogen, Carlsbad, Calif., USA) was performed. Protein content was determined using DC protein assay (BioRad, Hercules, Calif., USA) and equal amounts of protein were loaded in 4-12% Bis-Tris gradient gels. Following electrophoresis and transferring to nitrocellulose, membranes were blocked in milk with 5% Tris-buffered saline with 0.1% Tween 20. Membranes were immunoblotted using anti-Flag (Cell Signaling, Danvers, Mass., USA), anti-HA (Cell Signaling, Danvers, Mass., USA), anti-phospho ERK1/2 (Cell Signaling, Danvers, Mass., USA), anti-total ERK1/2 (Cell Signaling, Danvers, Mass., USA), anti-phospho aPKC (Cell Signaling, Danvers, Mass., USA), total PKCζ (Santa Cruz, Santa Cruz, Calif., USA), and anti-actin (Millipore, Billerica, Mass., USA) antibodies. Primary antibodies were detected by horseradish peroxidase-conjugated anti-rabbit and chemiluminescence with ECL Advance (GE Healthcare, Piscataway, N.J., USA) or anti-mouse IgG alkaline phosphatase with ECF (GE Healthcare, Piscataway, N.J., USA).

[12] = Solubility in aqueous environments; assay type: physicochemical
[13] = system: 20 AGC super-family kinases; assay: Screen of 20 AGC super-family kinases at 100 μM; assay type: biochemical, human
[14] = system: AKT in endothelial cells; assay: AKT, downstream mediator of PI3K signaling, in endothelial cells; assay type: cell-based
[15] = system: BREC; assay: LIVE/Dead cell viability; details: 24 and 48 hours; up to 300 nM
[16] = system: retinal vasculature tight junction complex (occludin); assay: Occludin immuno-labeling of retinal flat mounts after intra-vitreal VEGF; details: intra-vitreal co-injection with VEGF
[17] = system: human retinal endothelial primary cells (HREC) monolayers; assay: Basal permeability of HREC monolayers; assay type: cell-based
Protocol: as §2, §3

[18] = system: occludin and ZO-1 border staining in BREC; assay: Tight junction protein localization after VEGF (immunocytochemistry, confocal); assay type: cell-based, bovine; details: 100 nM, 30 min before 50 ng/ml VEGF for 60 min
Protocol: VEGF treatment of retinal endothelial cells and diabetes leads to a breakdown of the tight junction complex and internalization of tight junction proteins occludin and ZO-1. The ability of the phenyl-thiophene derivatives to prevent the VEGF-induced reduction in tight junction border staining was examined. BREC were grown to confluence on coverslips and pretreated with 100 nM PKCζ-diCl for 30 minutes prior to treatment with 50 ng/ml VEGF for 60 minutes. Cells were fixed and stained with antibodies for ZO-1 or occludin and were visualized by confocal microscopy. VEGF decreased the border staining and continuity of ZO-1 and occludin labeling at the cell border. […] This effect on the tight junction correlated with the observed attenuation of VEGF-induced permeability.

T1 sequence (Q05513 whole entry): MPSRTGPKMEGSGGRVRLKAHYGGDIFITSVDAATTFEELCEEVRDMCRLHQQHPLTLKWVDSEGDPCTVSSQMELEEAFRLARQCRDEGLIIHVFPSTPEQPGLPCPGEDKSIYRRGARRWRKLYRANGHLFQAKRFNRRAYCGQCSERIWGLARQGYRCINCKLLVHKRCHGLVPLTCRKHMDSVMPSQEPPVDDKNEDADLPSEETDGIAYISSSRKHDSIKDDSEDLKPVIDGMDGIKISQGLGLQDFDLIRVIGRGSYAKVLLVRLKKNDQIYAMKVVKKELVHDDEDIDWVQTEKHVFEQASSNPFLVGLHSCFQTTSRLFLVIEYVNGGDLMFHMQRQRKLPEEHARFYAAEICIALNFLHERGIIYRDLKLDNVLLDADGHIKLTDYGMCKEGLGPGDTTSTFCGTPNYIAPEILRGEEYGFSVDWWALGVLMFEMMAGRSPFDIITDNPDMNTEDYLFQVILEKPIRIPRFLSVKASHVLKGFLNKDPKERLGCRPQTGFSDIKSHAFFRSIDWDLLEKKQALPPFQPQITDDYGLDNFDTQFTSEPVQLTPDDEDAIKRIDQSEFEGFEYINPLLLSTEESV

CCOC(=O)c1c(NC(C)=O)sc(C(C)=O)c1-c1ccc(Cl)cc1 [APOGEE B]
IC50 [1]: 71 µM

COc1ccc(-c2csc(N)c2C(=O)N2CCOCC2)cc1OC [Compound 194-074-005]
IC50 [2]: 4 µM

CCNC(=O)c1c(-c2ccc(OC)c(OC)c2)csc1N [Compound 194-074-008]
IC50 [2]: 4 µM

Nc1scc(-c2ccc(Cl)c(Cl)c2)c1C(=O)N1CCOCC1 [Compound 194-094-003]
IC50 [2]: 3 µM

CC(C)NC(=O)c1c(-c2ccc(Cl)c(Cl)c2)csc1N [Compound 194-094-008]
IC50 [2]: 5 µM

CCNC(=O)c1c(-c2ccc(Cl)c(Cl)c2)csc1N [Compound 194-094-009]
IC50 [2]: 5 µM

COc1ccc(-c2csc(N)c2C#N)cc1OC [Compound 227-076-001]
IC50 [2]: 7 µM

COc1ccc(-c2csc(N)c2C(=O)OCc2ccccc2)cc1OC [Compound 252-036-001]
IC50 [2]: 6 µM
EC50 [3]: 0.001 µM

CCOC(=O)c1c(-c2ccc3c(c2)OCO3)csc1N [Compound 268-020-002]
IC50 [2]: 2 µM
EC50 [3]: 0.003 µM
TNF/VEGF-induction of BREC permeability [4]: significantly reduce
EC50 [4]: 0.02 µM

COc1ccc(-c2csc(N)c2C(=O)OCc2ccccc2F)cc1OC [Compound 317-052-001]
IC50 [2]: 7 µM

COc1cccc(COC(=O)c2c(-c3ccc(OC)c(OC)c3)csc2N)c1 [Compound 317-052-004]
IC50 [2]: 5 µM
EC50 [3]: 0.002 µM

CCOC(=O)c1c(-c2ccc(OC)cc2F)csc1N [Compound 317-054-001]
IC50 [2]: 4 µM
EC50 [3]: 0.01 µM

CCOC(=O)c1c(-c2ccc(NC(C)=O)cc2)csc1N [Compound 317-056-002]
IC50 [2]: 6 µM

CCOC(=O)c1c(-c2ccc(N(C)C)cc2)csc1N [Compound 317-080-001]
EC50 [3]: 0.001 µM

CCOC(=O)c1c(-c2ccc(N)cc2)csc1N [Compound 317-094-001]
IC50 [2]: 2 µM
EC50 [3]: 0.001 µM

COc1cccc(COC(=O)c2c(-c3ccc(C(N)=O)cc3)csc2N)c1 [Compound 317-120-001]
IC50 [2]: 6 µM

COc1ccc(-c2csc(N)c2C(=O)OC(C)C)cc1OC [PKCl-diMeO]
IC50 [5]: > 100 µM
IC50 [6]: 124 µM
IC50 [7]: 282 µM
IC50 [8]: 147 µM
VEGF-induced permeability [9]: dose-dependently blocked
specificity towards atypical PKC isoforms compared to the classical PKCs (α, β) [10]: 25-50 fold
specificity towards atypical PKC isoforms compared to the novel class (δ,ε) [10]: 25 fold
cPKC activity in cell culture [11]: did not inhibit cPKC activity
Erk phosphorylation ([11]; endothelial cells): unaffected
EC50 ([3]; Homo sapiens): 0.003 µM
solubility in aqueous environments [12]: improved solubility in aqueous environments
inhibitory activity towards other AGC kinases [13]: limited inhibitory activity
AKT signaling [14]: unaffected
TNF/VEGF-induction of BREC permeability [4]: significantly reduce
EC50 ([4]; Bos taurus): 0.001 µM
BREC viability [15]: no evidence of cell death

CC(C)OC(=O)c1c(-c2ccc(Cl)c(Cl)c2)csc1N [PKCζl-diCl, isopropyl 2-amino-4-(3,4-dichlorophenyl)thiophene-3-carboxylate]
VEGF-induced permeability [9]: dose-dependently blocked
specificity towards atypical PKC isoforms compared to the classical PKCs (α, β) [10]: 5-10 fold
specificity towards atypical PKC isoforms compared to the novel class (δ,ε) [10]: 10-20 fold
occludin border staining in retinal vessels [16]: occludin border staining was preserved
basal permeability of HREC monolayers [17]: reducing permeability was also observed
VEGF-induced redistribution of occludin and ZO-1 [18]: blocked the VEGF-induced redistribution of occludin and ZO-1 proteins

— patent US8889672B2, “Compounds, formulations, and methods of protein kinase C inhibition” (The Regents of The University of Michigan, priority 2011, dated 2014)
